Source: patent US10342794B2, “Substituted imidazo[1,2-a]pyrazines as Syk inhibitors” (Gilead Sciences, Inc., priority 2013, dated 2019)

Key:
[1] = system: basophils in human whole blood (CD63 expression); assay: 384-Well HTBS Whole Blood CD63 Basophil Assay (25% blood); type: cell-based; settings: for IC50: comparison table with known compounds, human whole blood basophils, head prints IC50; for EC50: human whole blood (25% blood), anti-FceRI mAb activation, CD63 on CCR3 positive cells
Description: Syk activity was assessed in relation to reduced activation of basophils as measured by the expression of CD63 in a human whole blood basophil cellular assay (25% blood). Basophil activation was measured in human whole blood using the Flow CAST kit (Buhlmann Laboratories AG, Baselstrasse, Switzerland) following the protocol provided by the manufacturer with minor modifications. Fresh human whole blood in heparin was collected and delivered same day (AllCells, Emeryville, Calif.). Whole blood samples were incubated with either DMSO (1% final) or serial diluted compounds in DMSO for 60 minutes at 37° C. Basophils were activated using the anti-FceRI mAb and stained with anti-CD63-FITC and anti-CCR3-PE for 20 minutes at 37° C. (per well: 50 μL of whole blood was mixed with 113 μL of stimulation buffer, 8.5 μL anti-FceRI mAb, 8.5 μL Ab stain CCR3-PE/CD63-FITC). Cells were centrifuged at 1000×g for 18 minutes and 150 μL/well of supernatant removed. Red blood cells were lysed and cells fixed by 2 rounds of cell lysing: resuspending cell pellets with 150 μL/well 1× lysis buffer, incubating at room temperature for 10 minutes, and collecting cell pellets by centrifuging for 1200 rpms for 5 minutes. Cells were washed with 150 µL/well wash buffer twice, and resuspended in a final volume of 75 µL/well of wash buffer for either immediate flow cytometery analysis or overnight incubation at 4° C. followed by flow cytometry analysis. Degranulation (basophil activation) was detected by CD63 surface expression on CCR3 positive cells. The percent CD63 positive cells within the gated basophil population were determined and normalized to the DMSO (negative control) and control compound (positive control).

human hepatocytes = assay: Human Hepatocyte Stability Assay (predicted hepatocyte clearance); type: in vitro ADME
Description: The human […] stability of the compounds as predicted hepatocyte clearance in L/hr/kg was assessed. Compounds to be tested were diluted to 200 μM (4 μl of 10 mM DMSO stock into 196 μl ACN:H2O (50:50). Propranolol was used as a positive control, and buffer only without hepatocytes as 0% control. These were further diluted 4 μl with 891 μl KHB buffer (InVitroGRO catalog number Z99074) to provide 2× dosing solution. To each well of 24 well plate, 250 μl of the 2× dosing solution was added to each well with 250 μl of hepatocytes cells (1×10^6 viable cells/ml per well) or KHB for control samples to achieve a final compound concentration of 1 μM during incubation. The final solvent concentration was 0.01% DMSO and 0.25% ACN. The culture plate was placed on a rocker and incubated at 37° C., 5% CO2. Samples were collected at time 0, 1, 3, and 6 hours. The loss of parent compound was determined using LC-MS methods against a standard curve.

[2] = comparison table with known compounds, predicted hepatocyte clearance (L/hr/kg)
[3] = predicted hepatocyte clearance, human hepatocytes, 1 μM compound, 0-6 hours

Row | IC50 [1] | Hheps CL (human hepatocytes; [2]) | EC50 [1] | Hheps CL (human hepatocytes; [3]) | Compound
1 | 0.809 µM | 0.24 L/h/kg |  |  | COc1ccc(Nc2nc(-c3cccc(N)c3)cn3ccnc23)cc1OC [6-(3-aminophenyl)-N-(3,4-dimethoxyphenyl)imidazo[1,2-a]pyrazin-8-amine, reference compound]
2 | 0.25 µM | 0.80 L/h/kg |  |  | Cc1ncc(-c2cn3ccnc3c(Nc3ccc(N4CCOCC4)cc3)n2)cc1N [6-(5-amino-6-methylpyridin-3-yl)-N-(4-morpholinophenyl)imidazo[1,2-a]pyrazin-8-amine, reference compound]
3 | 0.063 µM | 0.09 L/h/kg | 0.063 µM | 0.09 L/h/kg | Nc1cncc(-c2cn3ccnc3c(Nc3ccc(N4CCO[C@@H](CO)C4)cc3)n2)n1 [Ex.-3, (R)-(4-(4-((6-(6-aminopyrazin-2-yl)imidazo[1,2-a]pyrazin-8-yl)amino)phenyl)morpholin-2-yl)methanol]
4 | 0.157 µM | 0.08 L/h/kg | 0.157 µM | 0.08 L/h/kg | Cc1c(-c2cncc(N)n2)nc(Nc2ccc(N3CCN(C4COC4)CC3)cc2)c2nccn12 [Ex.-4, 6-(6-aminopyrazin-2-yl)-5-methyl-N-(4-(4-(oxetan-3-yl)piperazin-1-yl)phenyl)imidazo[1,2-a]pyrazin-8-amine]
5 | 0.12 µM | 0.07 L/h/kg | 0.12 µM | 0.07 L/h/kg | Nc1cncc(-c2cn3ccnc3c(Nc3ccc(N4CCN(C5COC5)CC4)c(OCCO)c3)n2)n1 [Ex.-5, 2-(5-((6-(6-aminopyrazin-2-yl)imidazo[1,2-a]pyrazin-8-yl)amino)-2-(4-(oxetan-3-yl)piperazin-1-yl)phenoxy)ethanol]
6 | 0.128 µM | 0.08 L/h/kg | 0.128 µM | 0.08 L/h/kg | Nc1cncc(-c2cn3ccnc3c(Nc3ccc(N4CCN(CC(CO)CO)CC4)cc3)n2)n1 [Ex.-6, 2-((4-(4-((6-(6-aminopyrazin-2-yl)imidazo[1,2-a]pyrazin-8-yl)amino)phenyl)piperazin-1-yl)methyl)propane-1,3-diol]
